# Read-outs that look alike come from different tables or passages of the source.
# Key:
# K-Ras G12S = target: T1, K-Ras G12S (Homo sapiens, UniProt P01116, G12S); test: HTRF assay of the K-Ras / SOS1 interaction; format: biochemical; conditions: IC50 (against K-Ras G12D) to IC50 (against K-Ras G12S)
# T1 construct: made in house; host or cells: E. coli (e.g., BL21 (DE3))
# Outline: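 Compounds (duplicates, 10 µM to 0.01 µM) were incubated ≥~10 min with Eu-labelled GST-K-Ras G12S and XL665-labelled His-hSOS1 in HEPES pH 7.4 buffer containing NaCl, DTT, BSA and Igepal. Disruption measured as HTRF emission ratio 665/620 nm, fitted to IC50.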
# [1] = target: T2, KRAS protein (His-tagged GDP-loaded G12S 1-169) (Homo sapiens, UniProt P01116, G12S); test: Covalent modification of KRAS protein, intact-protein LC-MS; format: binding; conditions: 24hrs at room temperature, KRAS protein ~2 µM
# T2 construct: His-tagged GDP-loaded G12S 1-169
# Outline: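 Percent covalent modification derives from deconvoluted intact-mass intensities of compound-adducted versus unmodified KRAS, measured by LC-ESI-MS. Before analysis, ~2 µM GDP-loaded His-KRAS 1-169 was exposed to compound for 24 h at room temperature and acidified with formic acid.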
# GP2D cells = test: Cell proliferation assay (CellTiter-Glo), K-Ras G12D cells; format: cell-based; conditions: read-out: Inhibition of GP2D Cells (IC50)
# Outline: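 CellTiter-Glo luminescence, taken roughly 5 days after dosing, measured growth of G12D-mutant GP2D cells in DMEM/2 mM glutamine/10% FBS. Compound dilution series (e.g., 9 points, 3-fold) added the day after plating. Four-parameter fitting gave IC50.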
SMILES,Ratio of IC50 KRAS G12D vs. IC50 KRAS G12S (K-Ras G12S),% G12S Modification at 24 hr. [1],IC50 (GP2D cells; GP2D cells (K-Ras G12D)) [nM],IC50 (GP2D cells; GP2d) [nM]
"CC(=O)c1c(F)ccc2cc(O)cc(-c3ccc4c(N5CCCC6(CN(C(=O)n7cncn7)C6)C5)nc(OC[C@@]56CCCN5C[C@H](F)C6)nc4c3F)c12 [Compound A154, 1-(8-(4-(2-(1H-1,2,4-triazole-1-carbonyl)-2,6-diazaspiro[3.5]nonan-6-yl)-8-fluoro-2-(((2R,7aS)-2-fluorotetrahydro-1H-pyrrolizin-7a(5H)-yl)methoxy)quinazolin-7-yl)-2-fluoro-6-hydroxynaphthalen-1-yl)ethan-1-one]",A (A: indicates that the ratio of IC50 against KrasG12D vs. IC50 against KrasG12S is 1-fold or greater),+++ (+++ indicates greater than 20% labelling),1000 to 10000,–
"N#C[C@H]1CN(c2nc(OC[C@@]34CCCN3C[C@H](F)C4)nc3c(F)c(-c4ccc(F)c5sc(N)nc45)c(Cl)cc23)CCN1C(=O)n1cncn1 [Compound A157, (2R)-4-(7-(2-amino-7-fluorobenzo[d]thiazol-4-yl)-6-chloro-8-fluoro-2-(((2R,7aS)-2-fluorotetrahydro-1H-pyrrolizin-7a(5H)-yl)methoxy)quinazolin-4-yl)-1-(1H-1,2,4-triazole-1-carbonyl)piperazine-2-carbonitrile]",A (A: indicates that the ratio of IC50 against KrasG12D vs. IC50 against KrasG12S is 1-fold or greater),++ (++ indicates between about 1%- 20% labelling),1000 to 10000,–
"N#Cc1c(N)sc2c(F)ccc(-c3ncc4c(N5CC6CCC(C5)N6C(=O)n5ccnc5C#N)nc(OC[C@@]56CCCN5C[C@H](F)C6)nc4c3F)c12 [Compound A165, 1-(3-(7-(2-amino-3-cyano-7-fluorobenzo[b]thiophen-4-yl)-8-fluoro-2-(((2R,7aS)-2-fluorotetrahydro-1H-pyrrolizin-7a(5H)-yl)methoxy)pyrido[4,3-d]pyrimidin-4-yl)-3,8-diazabicyclo[3.2. 1]octane-8-carbonyl)-1H-imidazole-2-carbonitrile]",A (A: indicates that the ratio of IC50 against KrasG12D vs. IC50 against KrasG12S is 1-fold or greater),++ (++ indicates between about 1%- 20% labelling),1000 to 10000,–
"N#Cc1nccn1C(=O)N1CCCN(c2nc(OC[C@@]34CCCN3C[C@H](F)C4)nc3c(F)c(-c4ccc(F)c5sc(N)nc45)c(Cl)cc23)CC1 [Compound A171, 1-(4-(7-(2-amino-7-fluorobenzo[d]thiazol-4-yl)-6-chloro-8-fluoro-2-(((2R,7aS)-2-fluorotetrahydro-1H-pyrrolizin-7a(5H)-yl)methoxy)quinazolin-4-yl)-1,4-diazepane-1-carbonyl)-1H-imidazole-2-carbonitrile]",A (A: indicates that the ratio of IC50 against KrasG12D vs. IC50 against KrasG12S is 1-fold or greater),+++ (+++ indicates greater than 20% labelling),1000 to 10000,–
"N#Cc1c(N)sc2c(F)ccc(-c3c(Cl)cc4c(N5CCC6C5CCCN6C(=O)n5cncn5)nc(OC[C@@]56CCCN5C[C@H](F)C6)nc4c3F)c12 (stereo partly drawn) [Compound A181, 4-(4-(4-(1H-1,2,4-triazole-1-carbonyl)octahydro-1H-pyrrolo[3,2-b]pyridin-1-yl)-6-chloro-8-fluoro-2-(((2R,7aS)-2-fluorotetrahydro-1H-pyrrolizin-7a(5H)-yl)methoxy)quinazolm-7-yl)-2-amino-7-fluorobenzo[b]thiophene-3-carbonitrile]",A (A: indicates that the ratio of IC50 against KrasG12D vs. IC50 against KrasG12S is 1-fold or greater),+++ (+++ indicates greater than 20% labelling),≤ 1000,–
"Nc1nc2c(-c3c(Cl)cc4c(N5CCC56CCCN(C(=O)n5cncn5)C6)nc(OCC56CCCN5CC(F)C6)nc4c3F)ccc(F)c2s1 (stereo not drawn) [Compound A197, (1-(7-(2-amino-7-fluorobenzo[d]thiazol-4-yl)-6-chloro-8-fluoro-2-((2-fluorotetrahydro-1H-pyrrolizin-7a(5H)-yl)methoxy)quinazolin-4-yl)-1,6-diazaspiro[3.5]nonan-6-yl)(1H-1,2,4-triazol-1-yl)methanone]",A (A: indicates that the ratio of IC50 against KrasG12D vs. IC50 against KrasG12S is 1-fold or greater),+++ (+++ indicates greater than 20% labelling),1000 to 10000,–
"Nc1nc2c(-c3c(Cl)cc4c(N5CCC6(CN(C(=O)n7cncn7)C6)C5)nc(OC[C@@]56CCCN5C[C@H](F)C6)nc4c3F)ccc(F)c2s1 [Compound A201, (6-(7-(2-amino-7-fluorobenzo[d]thiazol-4-yl)-6-chloro-8-fluoro-2-(((2R,7aS)-2-fluorotetrahydro-1H-pyrrolizin-7a(5H)-yl)methoxy)quinazolm-4-yl)-2,6-diazaspiro[3.4]octan-2-yl)(1H-1,2,4-triazol-1-yl)methanone]",A (A: indicates that the ratio of IC50 against KrasG12D vs. IC50 against KrasG12S is 1-fold or greater),+++ (+++ indicates greater than 20% labelling),1000 to 10000,–
"N#Cc1nccn1C(=O)N1CCN(c2nc(OC[C@@]34CCCN3C[C@H](F)C4)nc3c(F)c(-c4ccc(F)c5sc(N)nc45)c(Cl)cc23)CC(F)(F)C1 [Compound A204, 1-(4-(7-(2-amino-7-fluorobenzo[d]thiazol-4-yl)-6-chloro-8-fluoro-2-(((2R,7aS)-2-fluorotetrahydro-1H-pyrrolizin-7a(5H)-yl)methoxy)quinazolin-4-yl)-6,6-difluoro-1,4-diazepane-1 - carbonyl)-1H-imidazole-2-carbonitrile]",A (A: indicates that the ratio of IC50 against KrasG12D vs. IC50 against KrasG12S is 1-fold or greater),++ (++ indicates between about 1%- 20% labelling),1000 to 10000,–
"Nc1nc2c(-c3c(Cl)cc4c(N[C@H]5C[C@H]6CC[C@@H](C5)N6C(=O)n5cncn5)nc(OC[C@@]56CCCN5C[C@H](F)C6)nc4c3F)ccc(F)c2s1 [Compound A207, ((1R,3r,5S)-3-((7-(2-amino-7-fluorobenzo[d]thiazol-4-yl)-6-chloro-8-fluoro-2-(((2R,7aS)-2-fluorotetrahydro-1H-pyrrolizin-7a(5H)-yl)methoxy)quinazolin-4-yl)amino)-8-azabicyclo[3.2.1]octan-8-yl)(1H-1,2,4-triazol-1-yl)methanone]",A (A: indicates that the ratio of IC50 against KrasG12D vs. IC50 against KrasG12S is 1-fold or greater),+++ (+++ indicates greater than 20% labelling),–,1000 to 10000
"Nc1nc2c(-c3c(Cl)cc4c(N5CCC56CCCN(C(=O)n5cncn5)CC6)nc(OC[C@@]56CCCN5C[C@H](F)C6)nc4c3F)ccc(F)c2s1 (stereo partly drawn) [Compound A209, (1-(7-(2-amino-7-fluorobenzo[d]thiazol-4-yl)-6-chloro-8-fluoro-2-(((2R,7aS)-2-fluorotetrahydro-1H-pyrrolizin-7a(5H)-yl)methoxy)quinazolin-4-yl)-1,7-diazaspiro[3.6]decan-7-yl)(1H-1,2,4-triazol-1-yl)methanone]",A (A: indicates that the ratio of IC50 against KrasG12D vs. IC50 against KrasG12S is 1-fold or greater),++ (++ indicates between about 1%- 20% labelling),1000 to 10000,–
"Nc1nc2c(-c3c(Cl)cc4c(N5CCOC6(CCN(C(=O)n7cncn7)C6)C5)nc(OC[C@@]56CCCN5C[C@H](F)C6)nc4c3F)ccc(F)c2s1 (stereo partly drawn) [Compound A221, (9-(7-(2-amino-7-fluorobenzo[d]thiazol-4-yl)-6-chloro-8-fluoro-2-(((2R,7aS)-2-fluorotetrahydro-1H-pyrrolizin-7a(5H)-yl)methoxy)quinazolin-4-yl)-6-oxa-2,9-diazaspiro[4.5]decan-2-yl)(1H-1,2,4-triazol-1-yl)methanone]",A (A: indicates that the ratio of IC50 against KrasG12D vs. IC50 against KrasG12S is 1-fold or greater),++ (++ indicates between about 1%- 20% labelling),1000 to 10000,–
"N#Cc1c(N)sc2c(F)ccc(-c3c(Cl)cc4c(N5CC6OCCN(C(=O)n7cncn7)C6C5)nc(OC[C@@]56CCCN5C[C@H](F)C6)nc4c3F)c12 (stereo partly drawn) [Compound A227, 4-(4-(4-(1H-1,2,4-triazole-1-carbonyl)hexahydropyrrolo[3,4-b][1,4]oxazin-6(2H)-yl)-6-chloro-8-fluoro-2-(((2R,7aS)-2-fluorotetrahydro-1H-pyrrolizin-7a(5H)-yl)methoxy)quinazolin-7-yl)-2-amino-7-fluorobenzo[b]thiophene-3-carbonitrile]",A (A: indicates that the ratio of IC50 against KrasG12D vs. IC50 against KrasG12S is 1-fold or greater),+++ (+++ indicates greater than 20% labelling),1000 to 10000,–
